# Read-outs that look alike come from different tables or passages of the source.
# Key:
# [1] = Broth microdilution MIC of free ligands, strain not specified; type: cell-based; details: Proteus hauseri, ATCC 13315 / ATCC 15442 / ATCC 25922; free ligands tested up to 500 mg/L
# Description: (§1) The antimicrobial susceptibility testing of synthesized complexes, free ligands, and references compounds (AgNO3 and AgSD) was performed against three Gram-negative strains: Eschericha coli ATCC 25922, Proteus hauseri ATCC 13315, and Pseudomanos aeruginosa ATCC 15442. The minimum inhibitory concentration (MIC) and minimum bactericidal concentration (MBC) were determined by a modified broth microdilution method according to the recommendation of Clinical and Laboratory Standards Institute (CLSI M07-A8). In the experiments the Mueller-Hinton broth was used, the final organism density was about 5 × 10^5 CFU/mL and the tests were performed 20 h at 37 °C. The studied compounds were dissolved in water (1, 3, 4, 6, and the ligands [except 2-CH2OHbim]) or in DMSO (2, 5, and 2-CH2OHbim), and the appropriate amounts were added to samples (to biotic controls was added pure solvent). The compounds were tested in concentration ranging from 0 mg/L to 100 mg/L, except free ligands which were tested up to 500 mg/L.
# [2] = system: Escherichia coli ATCC 25922; assay: Broth microdilution MIC/MBC (CLSI M07-A8), E. coli; type: cell-based; details: for MBC (minimum bactericidal concentration): E. coli ATCC 25992; for MIC (minimum inhibitory concentration): Mueller-Hinton broth, 20 h at 37 °C, triplicate (SD = 0)
# Description: as §1
# [3] = system: Proteus hauseri ATCC 13315; assay: Broth microdilution MIC/MBC (CLSI M07-A8), P. hauseri; type: cell-based; details: for MBC (minimum bactericidal concentration): P. hauseri ATCC 13315; for MIC (minimum inhibitory concentration): P. hauseri, Mueller-Hinton broth, 20 h at 37 °C, triplicate (SD = 0)
# Description: as §1
# [4] = system: Pseudomonas aeruginosa ATCC 15442; assay: Broth microdilution MIC/MBC (CLSI M07-A8), P. aeruginosa; type: cell-based; details: for MBC (minimum bactericidal concentration): P. aeruginosa ATCC 15442; for MIC (minimum inhibitory concentration): Mueller-Hinton broth, 20 h at 37 °C, triplicate (SD = 0)
# Description: as §1
# [5] = system: B16 (murine melanoma) cells; assay: MTT cytotoxicity assay, B16 cells; type: cell-based; details: 72 h incubation, three independent experiments, read-out: IC50 (concentration causing 50% reduction of cellular viability)
# Description: The B16 (murine melanoma) cells and C3H10T1/2 (mouse fibroblast) cells were seeded 7 × 10^3 (B16) and 3 × 10^4 (10T1/2) per well/24 well plate into a medium containing DMEM GlutaMAX (Thermo Fisher Scientific, Waltham, MA USA), 10% bovine serum (Lonza, San Diego, CA, USA) added, and Antibiotic Antimicotic Solution 1:100 (Sigma-Aldrich). The plates were stored in a humidified incubator at 37 °C, 5% CO2. After 24 h, the cells were treated with the following compounds: compounds 1–6, free ligands, AgNO3, and AgSD (except control cells—wells without tested compound). Silver complexes 1, 3, 4, 6, and AgNO3 were dissolved in water. Complexes 2, 5, and AgSD are DMSO-soluble. Next, all chemicals were diluted into water to make a concentration 1, 0.1, 0.01 mg/mL and as a working solution were added to the medium. After 72 h of incubation, the cells were washed and incubated with 0.25 mg/mL MTT (Sigma-Aldrich) solution and were incubated for another 3 h. Isopropanol was added to dissolve the formazan crystals. Absorbance at 540 and 690 nm was read using Epoch Software version 2.01.14 (Bio-Tek, Winooski, VT, USA).
# E. coli ATCC 8739 = system: E. coli ATCC 8739; set-up: method as in PMID 24218046; details: cited from earlier work
# P. aeruginosa ATCC 27853 = system: P. aeruginosa ATCC 27853; set-up: method as in PMID 24218046; details: cited from earlier work
# [6] = system: three Gram-negative strains: Eschericha coli ATCC 25922, Proteus hauseri ATCC 13315, and Pseudomanos aeruginosa ATCC 15442; assay: Broth microdilution MIC of free ligands, strain not specified; type: cell-based; details: free ligands tested up to 500 mg/L
# Description: as §1
# [7] = system: Escherichia coli ATCC 25922; set-up: method as in PMID 25846722; details: cited from earlier work
# [8] = system: Proteus hauseri ATCC 13315; set-up: method as in PMID 25846722; details: cited from earlier work
# [9] = system: Pseudomonas aeruginosa ATCC 15442; set-up: method as in PMID 25846722; details: cited from earlier work
# B16 cells = system: B16 cells; set-up: method as in doi:10.1039/a702757e; details: cited from earlier work
Molecule,MBC (minimum bactericidal concentration) [2] [µM],MIC (minimum inhibitory concentration) ([2]; E. coli) [µM],MBC (minimum bactericidal concentration) [3] [µM],MIC (minimum inhibitory concentration) [3] [µM],MBC (minimum bactericidal concentration) [4] [µM],MIC (minimum inhibitory concentration) ([4]; P. aeruginosa) [µM],other results
"OCc1cccc(CO)n1 [2,6-di(CH2OH)py, 2,6-di(hydroxymethyl)-pyridine]",–,–,–,–,–,–,MIC [1]: > 500 mg/L
"O=[N+]([O-])[O-].[Ag+] [AgNO3, silver nitrate, reference compound]",177,118,177,118,59,59,IC50 [5]: 9.74 µM
"CCOP(=O)(OCC)OCc1nc2ccccc2[nH]1.CCOP(=O)(OCC)OCc1nc2ccccc2[nH]1.O=[N+]([O-])O.[Ag] [Complex 2, [Ag(2-bimOpe)2]NO3]",54,27,41,27,27,14,MIC (E. coli ATCC 8739): 21.2 µM; MIC (P. aeruginosa ATCC 27853): 5.3 µM
CCOP(=O)(OCC)OCc1nc2ccccc2[nH]1 [Complex 2-bimOpe],–,–,–,–,–,–,MIC values of the free ligands [6]: > 500 mg/L^−1
"O=[N+]([O-])[O-].OCc1cccc(CO)n1.OCc1cccc(CO)n1.[Ag+] [Complex 3, [Ag(2,6-di(CH2OH)py)2]NO3]",67,67,112,67,67,45,–
"O=[N+]([O-])[O-].OCc1ccncc1.OCc1ccncc1.[Ag+] [Complex 4, [Ag(4-CH2OHpy)2]NO3]",77,52,77,52,52,26,–
OCc1ccncc1 [Complex 4-CH2OHpy],–,–,–,–,–,–,MIC [1]: > 500 mg/L
CCOP(=O)(OCC)OCc1ccncc1 [Complex 4-pmOpe],–,–,–,–,–,–,MIC values of the free ligands [6]: > 500 mg/L^−1
"O=[N+]([O-])[O-].OCc1nc2ccccc2[nH]1.OCc1nc2ccccc2[nH]1.[Ag+] [Complex 5, [Ag(2-CH2OHbim)2]NO3]",21,21,43,21,21,21,"growth-inhibiting concentration, fold lower than that of AgSD ([2]; E. coli, MIC relative to AgSD): 2.6 fold; growth-inhibiting concentration, fold lower than that of AgSD ([4]; P. aeruginosa, MIC relative to AgSD): 2.6 fold"
"Cc1ncc([N+](=O)[O-])n1CCO.Cc1ncc([N+](=O)[O-])n1CCO.O=[N+]([O-])[O-].[Ag+] [Complex 6, [Ag(MTZ)2NO3]]",–,–,–,–,–,–,MBC (minimum bactericidal concentration) ([7]; E. coli ATCC 25992): 98 µM; MIC (minimum inhibitory concentration) ([7]; E. coli): 98 µM; MBC (minimum bactericidal concentration) ([8]; P. hauseri ATCC 13315): 117 µM; MIC (minimum inhibitory concentration) ([8]; P. hauseri): 98 µM; MBC (minimum bactericidal concentration) ([9]; P. aeruginosa ATCC 15442): 117 µM; MIC (minimum inhibitory concentration) ([9]; P. aeruginosa): 59 µM
"N.N.[Cl][Pt][Cl] [cis-DDP, cisplatin]",–,–,–,–,–,–,IC50 [5]: 7.87 µM; IC50 (B16 cells): 0.9 µM
{[Ag(4-pmOpe)]NO3}n [Complex 1],145,96,120,72,72,48,IC50 [5]: 13 µM; MIC (E. coli ATCC 8739): 37.6 µM; MIC (P. aeruginosa ATCC 27853): 37.6 µM

# Source: paper PMC6274122, “Antibacterial Activity and Cytotoxicity of Silver(I) Complexes of Pyridine and (Benz)Imidazole Derivatives. X-ray Crystal Structure of [Ag(2,6-di(CH2OH)py)2]NO3” (Molecules, 2016)
